Tests used:
[1] = test system: Micrococcus luteus; experiment: Antimicrobial activity against Micrococcus luteus ATCC 9341 after 18 hrs by twofold agar dilution method; type: functional; conditions: ATCC 9341, 18 h, read-out: MIC
[2] = test system: Escherichia coli; experiment: Antimicrobial activity against Escherichia coli ATCC 25922 after 18 hrs by twofold agar dilution method; type: functional; conditions: ATCC 25922, 18 h
[3] = test system: Escherichia coli; experiment: Antimicrobial activity against Escherichia coli ATCC 10536 after 18 hrs by twofold agar dilution method; type: functional; conditions: ATCC 10536, 18 h
[4] = test system: Bacillus cereus; experiment: Antimicrobial activity against Bacillus cereus ATCC 27348 after 18 hrs by twofold agar dilution method; type: functional; conditions: ATCC 27348, 18 h
[5] = test system: Escherichia coli; experiment: Antimicrobial activity against Escherichia coli 851E after 18 hrs by twofold agar dilution method; type: functional
[6] = test system: Serratia marcescens; experiment: Antimicrobial activity against Serratia marcescens 1826E after 18 hrs by twofold agar dilution method; type: functional
[7] = test system: Acinetobacter calcoaceticus; experiment: Antimicrobial activity against Acinetobacter calcoaceticus ATCC 15473 after 18 hrs by twofold agar dilution method; type: functional; conditions: ATCC 15473, 18 h
[8] = test system: Serratia marcescens; experiment: Antimicrobial activity against Serratia marcescens ATCC 27117 after 18 hrs by twofold agar dilution method; type: functional; conditions: ATCC 27117, 18 h
[9] = test system: Enterococcus faecalis; experiment: Antimicrobial activity against Enterococcus faecalis ATCC 29212 after 18 hrs by twofold agar dilution method; type: functional; conditions: ATCC 29212, 18 h
[10] = test system: Moraxella catarrhalis; experiment: Antimicrobial activity against Moraxella catarrhalis C2431 after 18 hrs by twofold agar dilution method; type: functional; conditions: C2431, 18 h
[11] = test system: Staphylococcus aureus; experiment: Antimicrobial activity against Staphylococcus aureus 241 after 18 hrs by twofold agar dilution method; type: functional; conditions: Staphylococcus aureus, 241, 18 h; read-out: MIC
[12] = test system: Bacillus subtilis; experiment: Antimicrobial activity against Bacillus subtilis ATCC 6633 after 18 hrs by twofold agar dilution method; type: functional; conditions: ATCC 6633, 18 h
[13] = test system: Proteus vulgaris; experiment: Antimicrobial activity against Proteus vulgaris 6059 after 18 hrs by twofold agar dilution method; type: functional; conditions: Proteus vulgaris, 6059, 18 h
[14] = test system: Pseudomonas aeruginosa; experiment: Antimicrobial activity against Pseudomonas aeruginosa 6065Y after 18 hrs by twofold agar dilution method; type: functional
[15] = test system: Citrobacter freundii; experiment: Antimicrobial activity against Citrobacter freundii 8090 after 18 hrs by twofold agar dilution method; type: functional; conditions: Citrobacter freundii, 8090, 18 h
[16] = test system: Staphylococcus aureus; experiment: Antimicrobial activity against Staphylococcus aureus ATCC 25923 after 18 hrs by twofold agar dilution method; type: functional; conditions: ATCC 25923, 18 h, read-out: MIC
[17] = test system: Klebsiella pneumoniae; experiment: Antimicrobial activity against Klebsiella pneumoniae 2011E after 18 hrs by twofold agar dilution method; type: functional
[18] = test system: Enterobacter cloacae; experiment: Antimicrobial activity against Enterobacter cloacae ATCC 27508 after 18 hrs by twofold agar dilution method; type: functional; conditions: ATCC 27508, 18 h
[19] = test system: Morganella morganii; experiment: Antimicrobial activity against Morganella morganii 1375E after 18 hrs by twofold agar dilution method; type: functional
[20] = test system: Staphylococcus aureus; experiment: Antimicrobial activity against Staphylococcus aureus ATCC 6538P after 18 hrs by twofold agar dilution method; type: functional
[21] = test system: Salmonella typhimurium; experiment: Antimicrobial activity against Salmonella Typhimurium ATCC 14028 after 18 hrs by two-fold agar dilution method; type: functional, Salmonella enterica subsp. enterica serovar Typhimurium; conditions: Salmonella enterica, ATCC 14028, 18 h
[22] = test system: Enterobacter cloacae; experiment: Antimicrobial activity against Enterobacter cloacae P99 after 18 hrs by twofold agar dilution method; type: functional; conditions: P99, 18 h
[23] = test system: Staphylococcus aureus; experiment: Antimicrobial activity against Staphylococcus aureus giorgio after 18 hrs by twofold agar dilution method; type: functional
[24] = test system: Staphylococcus epidermidis; experiment: Antimicrobial activity against Staphylococcus epidermidis 887E after 18 hrs by twofold agar dilution method; type: functional; conditions: read-out: MIC
[25] = test system: Moraxella catarrhalis; experiment: Antimicrobial activity against Moraxella catarrhalis 25240 after 18 hrs by twofold agar dilution method; type: functional; conditions: Moraxella catarrhalis, 25240, 18 h
[26] = test system: Citrobacter koseri; experiment: Antimicrobial activity against Citrobacter diversus 2046 after 18 hrs by twofold agar dilution method; type: functional; conditions: Citrobacter koseri, 2046, 18 h
[27] = test system: Salmonella typhimurium; experiment: Antimicrobial activity against Salmonella typhimurium ATCC 13311 after 18 hrs by twofold agar dilution method; type: functional, Salmonella enterica subsp. enterica serovar Typhimurium; conditions: Salmonella enterica, ATCC 13311, 18 h
[28] = test system: Staphylococcus aureus; experiment: Antimicrobial activity against Staphylococcus aureus 77 after 18 hrs by twofold agar dilution method; type: functional; conditions: Staphylococcus aureus, 77, 18 h
[29] = test system: Klebsiella aerogenes; experiment: Antimicrobial activity against Klebsiella aerogenes harboring beta-lactamase SHV-1 1976E mutant after 18 hrs by twofold agar dilution method; type: functional
[30] = test system: Escherichia coli; experiment: Antimicrobial activity against Escherichia coli 3190Y after 18 hrs by twofold agar dilution method; type: functional
[31] = test system: Bacillus licheniformis; experiment: Antimicrobial activity against Bacillus licheniformis EMR after 18 hrs by twofold agar dilution method; type: functional

Structure (SMILES): C[C@H](CO)[C@H]1CC[C@H]2[C@@H]3CC[C@H]4C[C@H](NCCCNCCCCNCCCN)CC[C@]4(C)[C@H]3CC[C@]12C.Cl.Cl.Cl.Cl
- MIC [1]: 16 µg/mL
- MIC [2]: > 32 µg/mL
- MIC ([3]; read-out: MIC): < 32 µg/mL
- MIC ([4]; read-out: MIC): < 32 µg/mL
- MIC [5]: > 32 µg/mL
- MIC [6]: > 32 µg/mL
- MIC [7]: > 32 µg/mL
- MIC [8]: > 32 µg/mL
- MIC ([9]; read-out: MIC): < 32 µg/mL
- MIC ([10]; read-out: MIC): < 32 µg/mL
- MIC [11]: 4 µg/mL
- MIC [12]: 8 µg/mL
- MIC [13]: > 32 µg/mL
- MIC [14]: > 32 µg/mL
- MIC [15]: > 32 µg/mL
- MIC [16]: 16 µg/mL
- MIC [17]: > 32 µg/mL
- MIC [18]: > 32 µg/mL
- MIC [19]: > 32 µg/mL
- MIC [20]: 4 µg/mL
- MIC [21]: > 32 µg/mL
- MIC [22]: > 32 µg/mL
- MIC [23]: 16 µg/mL
- MIC [24]: 8 µg/mL
- MIC ([25]; read-out: MIC): < 32 µg/mL
- MIC [26]: > 32 µg/mL
- MIC [27]: > 32 µg/mL
- MIC ([28]; read-out: MIC): 16 µg/mL
- MIC [29]: > 32 µg/mL
- MIC ([30]; read-out: MIC): < 32 µg/mL
- MIC ([31]; read-out: MIC): 32 µg/mL

Structure (SMILES): C[C@H](CO)[C@H]1CC[C@H]2[C@@H]3CC[C@H]4C[C@@H](NCCCNCCCCNCCCN)CC[C@]4(C)[C@H]3CC[C@]12C.Cl.Cl.Cl.Cl
- MIC [1]: 32 µg/mL
- MIC [2]: > 32 µg/mL
- MIC ([3]; read-out: MIC): < 32 µg/mL
- MIC ([4]; read-out: MIC): < 32 µg/mL
- MIC [5]: > 32 µg/mL
- MIC [6]: > 32 µg/mL
- MIC [7]: > 32 µg/mL
- MIC [8]: > 32 µg/mL
- MIC ([9]; read-out: MIC): < 32 µg/mL
- MIC ([10]; read-out: MIC): < 32 µg/mL
- MIC [11]: 8 µg/mL
- MIC [12]: 8 µg/mL
- MIC [13]: > 32 µg/mL
- MIC [14]: > 32 µg/mL
- MIC [15]: > 32 µg/mL
- MIC [16]: 32 µg/mL
- MIC [17]: > 32 µg/mL
- MIC [18]: > 32 µg/mL
- MIC [19]: > 32 µg/mL
- MIC [20]: 8 µg/mL
- MIC [21]: > 32 µg/mL
- MIC [22]: > 32 µg/mL
- MIC [23]: 32 µg/mL
- MIC [24]: 32 µg/mL
- MIC ([25]; read-out: MIC): < 32 µg/mL
- MIC [26]: > 32 µg/mL
- MIC [27]: > 32 µg/mL
- MIC [28]: > 32 µg/mL
- MIC [29]: > 32 µg/mL
- MIC [30]: > 32 µg/mL
- MIC ([31]; read-out: MIC): 32 µg/mL

Structure (SMILES): C[C@H](CO)[C@H]1CC[C@H]2[C@@H]3CC[C@@H]4C[C@H](NCCCNCCCCNCCCN)CC[C@]4(C)[C@H]3CC[C@]12C.Cl.Cl.Cl.Cl
- MIC [1]: 8 µg/mL
- MIC [2]: > 32 µg/mL
- MIC [3]: > 32 µg/mL
- MIC [4]: > 32 µg/mL
- MIC [5]: > 32 µg/mL
- MIC [6]: > 32 µg/mL
- MIC [7]: > 32 µg/mL
- MIC [8]: > 32 µg/mL
- MIC [9]: > 32 µg/mL
- MIC ([10]; read-out: MIC): < 32 µg/mL
- MIC [11]: 8 µg/mL
- MIC [12]: 8 µg/mL
- MIC [13]: > 32 µg/mL
- MIC [14]: > 32 µg/mL
- MIC [15]: > 32 µg/mL
- MIC [16]: 32 µg/mL
- MIC [17]: > 32 µg/mL
- MIC [18]: > 32 µg/mL
- MIC [19]: > 32 µg/mL
- MIC [20]: 8 µg/mL
- MIC [21]: > 32 µg/mL
- MIC [22]: > 32 µg/mL
- MIC [23]: 32 µg/mL
- MIC [24]: 16 µg/mL
- MIC ([25]; read-out: MIC): < 32 µg/mL
- MIC [26]: > 32 µg/mL
- MIC [27]: > 32 µg/mL
- MIC ([28]; read-out: MIC): 8 µg/mL
- MIC [29]: > 32 µg/mL
- MIC [30]: > 32 µg/mL
- MIC ([31]; read-out: MIC): < 32 µg/mL

Structure (SMILES): C[C@H](CO)[C@H]1CC[C@H]2[C@@H]3CC[C@@H]4C[C@@H](NCCCNCCCCNCCCN)CC[C@]4(C)[C@H]3CC[C@]12C.Cl.Cl.Cl.Cl
- MIC [1]: 2 µg/mL
- MIC ([2]; read-out: MIC): 32 µg/mL
- MIC ([3]; read-out: MIC): 32 µg/mL
- MIC ([4]; read-out: MIC): < 32 µg/mL
- MIC [5]: > 32 µg/mL
- MIC [6]: > 32 µg/mL
- MIC [7]: > 32 µg/mL
- MIC [8]: > 32 µg/mL
- MIC ([9]; read-out: MIC): 32 µg/mL
- MIC [10]: > 32 µg/mL
- MIC [11]: 2 µg/mL
- MIC [12]: 2 µg/mL
- MIC [13]: > 32 µg/mL
- MIC [14]: > 32 µg/mL
- MIC [15]: > 32 µg/mL
- MIC [16]: 16 µg/mL
- MIC [17]: > 32 µg/mL
- MIC [18]: > 32 µg/mL
- MIC [19]: > 32 µg/mL
- MIC [20]: 1 µg/mL
- MIC [21]: > 32 µg/mL
- MIC [22]: > 32 µg/mL
- MIC [23]: 4 µg/mL
- MIC [24]: 4 µg/mL
- MIC [25]: > 32 µg/mL
- MIC [26]: > 32 µg/mL
- MIC [27]: > 32 µg/mL
- MIC ([28]; read-out: MIC): 2 µg/mL
- MIC [29]: > 32 µg/mL
- MIC ([30]; read-out: MIC): 32 µg/mL
- MIC [31]: > 32 µg/mL
